From patent US10106526B2, “Inhibitors of cyclin-dependent kinase 7 (CDK7)” (SYROS PHARMACEUTICALS, INC., priority 2014, dated 2018)

Key:
Jurkat cells = assay: Inhibition of proliferation of Jurkat cells (CellTiter-Glo, 72 hour); assay type: cell-based, human; details: 10 μM to 316 pM
Method in brief: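 Human T-cell leukemia Jurkat cells in RPMI 1640 with 10% FBS were exposed 72 h at 37 °C, 5% CO2 to compounds from 10 μM to 316 pM in 0.5-log steps. Anti-proliferative effect measured by CellTiter-Glo; IC50 reported in binned categories.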

A673 cells = assay: Inhibition of proliferation of A673 cells (CyQUANT, 72 hour); assay type: cell-based, human; details: 72 hour proliferation
Method in brief: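 Human Ewing's sarcoma A673 cells in DMEM + 10% FBS + 1 mM sodium pyruvate, 37 °C, 5% CO2, exposed to compounds from 4 μM to 126.4 pM (0.5 log dilutions) for 72 h. Proliferation read by CyQUANT; IC50 reported as binned categories.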

CDK7 = target: T1, CDK7 (Homo sapiens, UniProt P50613); assay: CDK7 kinase activity, Adapta kinase assay (Life Technologies); assay type: biochemical; details: Adapta kinase assay at Life Technologies; 10 μM down to 0.514 nM, 3-fold serial dilutions; read-out: CDK7 Inhibition (IC50)
T1 construct: purchased Life Technologies (Adapta kinase assay service)
T1 sequence (P50613 whole entry): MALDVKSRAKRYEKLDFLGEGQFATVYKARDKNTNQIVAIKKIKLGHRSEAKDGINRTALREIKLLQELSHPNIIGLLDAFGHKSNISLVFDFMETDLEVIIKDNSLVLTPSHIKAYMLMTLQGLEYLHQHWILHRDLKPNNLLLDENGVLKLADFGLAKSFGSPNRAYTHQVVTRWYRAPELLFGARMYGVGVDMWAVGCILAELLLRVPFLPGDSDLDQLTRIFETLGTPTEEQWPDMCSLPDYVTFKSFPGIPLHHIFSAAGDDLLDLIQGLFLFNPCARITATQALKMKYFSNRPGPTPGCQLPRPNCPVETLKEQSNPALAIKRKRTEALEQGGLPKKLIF
T1 sequence (P51946 whole entry partner): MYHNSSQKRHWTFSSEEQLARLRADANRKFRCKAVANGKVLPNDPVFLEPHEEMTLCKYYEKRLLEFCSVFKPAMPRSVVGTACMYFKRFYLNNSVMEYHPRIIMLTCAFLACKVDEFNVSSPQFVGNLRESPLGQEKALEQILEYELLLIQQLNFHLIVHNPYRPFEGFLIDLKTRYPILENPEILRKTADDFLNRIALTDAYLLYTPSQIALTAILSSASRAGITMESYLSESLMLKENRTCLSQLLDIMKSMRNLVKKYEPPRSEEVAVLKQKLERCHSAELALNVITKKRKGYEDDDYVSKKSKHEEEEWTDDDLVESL
T1 sequence (P51948 whole entry partner): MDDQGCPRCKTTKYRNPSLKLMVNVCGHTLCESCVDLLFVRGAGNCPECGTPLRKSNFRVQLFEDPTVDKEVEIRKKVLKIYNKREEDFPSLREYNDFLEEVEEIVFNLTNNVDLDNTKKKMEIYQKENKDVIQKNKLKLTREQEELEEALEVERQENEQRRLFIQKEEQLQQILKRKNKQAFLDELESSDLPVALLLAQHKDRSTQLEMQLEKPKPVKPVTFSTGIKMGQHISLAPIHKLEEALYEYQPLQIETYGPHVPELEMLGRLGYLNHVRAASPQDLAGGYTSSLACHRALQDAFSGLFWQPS
Method in brief: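 Adapta kinase activity assay run as a commercial service; substrates not specified here. Compounds tested in 3-fold serial dilutions from 10 μM down to 0.514 nM.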

[1] = target: CDK7/Cyclin H/MAT1 trimeric complex (Homo sapiens, UniProt P50613); assay: CDK7 kinase assay, Caliper/LabChip EZ Reader (Biortus Biosciences); assay type: biochemical; details: CDK7/Cyclin H/MAT1 10 nM, ATP 2 mM, FAM-CDK7tide 2 μM, 30 min incubation, read-out: CDK7 Inhibition (IC50)
CDK7/Cyclin H/MAT1 trimeric complex, sequence (P50613 whole entry): as the sequence (P50613 whole entry) above
CDK7/Cyclin H/MAT1 trimeric complex, sequence (P51946 whole entry partner): as the sequence (P51946 whole entry partner) above
CDK7/Cyclin H/MAT1 trimeric complex, sequence (P51948 whole entry partner): as the sequence (P51948 whole entry partner) above
Method: Compounds of the invention were further assayed for CDK7 activity at Biortus Biosciences (Jiangyin, Jiangsu Province, P.R. of China) using a CDK7 kinase assay developed with a Caliper/LabChip EZ Reader (Perkin Elmer, Waltham, Mass.). […] The incubation period was chosen such that the total fraction of phosphorylated peptide product produced was <20% for the uninhibited kinase.

Compound	IC50 (Jurkat cells) [nM]	IC50 (CDK7) [nM]	IC50 [1] [nM]	IC50 (Jurkat cells; Homo sapiens) [nM]	IC50 (A673 cells) [nM]	IC50 (A673 cells; Homo sapiens) [nM]
C=CC(=O)Nc1cnc(C(=O)N[C@H]2CCC[C@@H](Nc3ncc(Cl)c(-c4c[nH]c5ccccc45)n3)C2)nc1 [Compound 112, 5-acrylamido-N-((1S,3R)-3-(5-chloro-4-(1H-indol-3-yl)pyrimidin-2-ylamino)cyclohexyl)pyrimidine-2-carboxamide]		< 100	100 to 1000	> 5000		< 500
C=CC(=O)N1CCCC(C(=O)N[C@H]2CC[C@H](Nc3ncc(Cl)c(-c4c[nH]c5ccccc45)n3)CC2)C1 (stereo partly shown) [Compound 158, 1-acryloyl-N-((1r,4r)-4-(5-chloro-4-(1H-indol-3-yl)pyrimidin-2-ylamino)cyclohexyl)piperidine-3-carboxamide]		< 100	< 100	500 to 5000		
CN(C)C/C=C/C(=O)Nc1ccc(C(=O)N[C@H]2CCC[C@@H](Nc3ncc(Cl)c(-c4c[nH]c5ccccc45)n3)C2)nc1 [Compound 106, N-((1S,3R)-3-(5-chloro-4-(1H-indol-3-yl)pyrimidin-2-ylamino)cyclohexyl)-5-((E)-4-(dimethylamino)but-2-enamido)picolinamide]		< 100	< 100			< 500
C=CC(=O)N1CCC[C@@H]1C(=O)N[C@H]1CCC[C@@H](Nc2ncc(Cl)c(-c3c[nH]c4ccccc34)n2)C1 [Compound 173, (R)-1-acryloyl-N-((1S,3R)-3-(5-chloro-4-(1H-indol-3-yl)pyrimidin-2-ylamino)cyclohexyl)pyrrolidine-2-carboxamide]		< 100	< 100	500 to 5000		
C=CC(=O)N1CC(F)(F)C[C@H]1C(=O)N[C@H]1CCC[C@@H](Nc2ncc(Cl)c(-c3c[nH]c4ccccc34)n2)C1 [Compound 116, (S)-1-acryloyl-N-((1S,3R)-3-(5-chloro-4-(1H-indol-3-yl)pyrimidin-2-ylamino)cyclohexyl)-4,4-difluoropyrrolidine-2-carboxamide]		< 100	< 100			< 500
C=CC(=O)N1CCC(CN[C@H]2CCC[C@@H](Nc3ncc(Cl)c(-c4c[nH]c5ccccc45)n3)C2)CC1 [Compound 124, 1-(4-(((1S,3R)-3-(5-chloro-4-(1H-indol-3-yl)pyrimidin-2-ylamino)cyclohexylamino)methyl)piperidin-1-yl)prop-2-en-1-One]		< 100	< 100	> 5000		
CN(C)C/C=C/C(=O)N1CCC(C(=O)N2CC[C@@H](Nc3ncc(Cl)c(-c4c[nH]c5ccccc45)n3)C2)CC1 [Compound 213, (E)-1-[4-[(3R)-3-[[5-chloro-4-(1H-indol-3-yl)pyrimidin-2-yl]amino]pyrrolidine-1-carbonyl]-1-piperidyl]-4-(dimethylamino)but-2-en-1-One]		< 100	< 100	> 5000		< 500
CN(C)C/C=C/C(=O)Nc1ccc(C(=O)N[C@H]2CCC[C@@H](Nc3ncc(C#N)c(-c4c[nH]c5ccccc45)n3)C2)nc1 [Compound 110, N-((1S,3R)-3-(5-cyano-4-(1H-indol-3-yl)pyrimidin-2-ylamino)cyclohexyl)-5-((E)-4-(dimethylamino)but-2-enamido)picolinamide]		< 100	< 100	< 500		< 500
CN(C)CC=CC(=O)N1CCN(C2CCCC(Nc3ncc(Cl)c(-c4c[nH]c5ccccc45)n3)C2)CC1 (stereo not shown) [Compound 237]	< 500	< 100	< 100		< 500	
C=CC(=O)N1CCC(NC[C@H]2CCC[C@@H](Nc3ncc(Cl)c(-c4c[nH]c5ccccc45)n3)C2)CC1 [Compound 127, 1-[4-[[(1S,3R)-3-[[5-chloro-4-(1H-indol-3-yl)pyrimidin-2-yl]amino]cyclohexyl]methylamino]-1-piperidyl]prop-2-en-1-One]		< 100	< 100	> 5000		< 500
C=CC(=O)N1CCC(NC[C@@H]2CCC[C@H](Nc3ncc(Cl)c(-c4c[nH]c5ccccc45)n3)C2)CC1 [Compound 212, 1-[4-[[(1R,3S)-3-[[5-chloro-4-(1H-indol-3-yl)pyrimidin-2-yl]amino]cyclohexyl]methylamino]-1-piperidyl]prop-2-en-1-One]		< 100	< 100	> 5000		< 500

Continued, in another order:

IC50 (Jurkat cells) [nM]	IC50 (CDK7) [nM]	IC50 [1] [nM]	IC50 (Jurkat cells; Homo sapiens) [nM]	Compound	IC50 (A673 cells) [nM]	IC50 (A673 cells; Homo sapiens) [nM]
500 to 5000	< 100	< 100		CC1CN(C2CCCC(Nc3ncc(Cl)c(-c4c[nH]c5ccccc45)n3)C2)CCN1C(=O)C=CCN(C)C (stereo not shown) [Compound 230]	< 500	
500 to 5000	< 100	< 100		C=CC(=O)N1CCC2(CC1)CN([C@H]1CCC[C@@H](Nc3ncc(Cl)c(-c4c[nH]c5ccccc45)n3)C1)C(=O)O2 [Compound 186]	< 500	
	< 100	< 100	> 5000	C=CC(=O)N1CC(N(C)[C@H]2CCC[C@@H](Nc3ncc(Cl)c(-c4c[nH]c5ccccc45)n3)C2)C1 [Compound 224]		
> 5000	< 100	< 100		O=C(NC1CCCC(Nc2ncc(Cl)c(-c3cnn4ccccc34)n2)C1)C1CCN(C(=O)C=CCN2CCN(C3CC3)CC2)CC1 (stereo not shown) [Compound 223]		
	< 100	< 100	< 500	CN(C)C/C=C/C(=O)Nc1cnc(C(=O)N[C@H]2CCC[C@@H](Nc3ncc(Cl)c(-c4c[nH]c5ccccc45)n3)C2)nc1 [Compound 113, N-((1S,3R)-3-(5-chloro-4-(1H-indol-3-yl)pyrimidin-2-ylamino)cyclohexyl)-5-((E)-4-(dimethylamino)but-2-enamido)pyrimidine-2-carboxamide]		< 500
500 to 5000	< 100	< 100		CN(C)C/C=C/C(=O)N1CCC(O)(CN(C)[C@H]2CCC[C@@H](Nc3ncc(Cl)c(-c4c[nH]c5ccccc45)n3)C2)CC1 [Compound 228]	< 500	
	< 100	< 100		C=CC(=O)N1CCN([C@H]2CCC[C@@H](Nc3ncc(Cl)c(-c4c[nH]c5ccccc45)n3)C2)CC1 [Compound 168, 1-(4-((1S,3R)-3-(5-chloro-4-(1H-indol-3-yl)pyrimidin-2-ylamino)cyclohexyl)piperazin-1-yl)prop-2-en-1-One]		< 500
< 500	< 100	< 100		C=CC(=O)N1CCN(C2CCCC(Nc3ncc(Cl)c(-c4c[nH]c5ccccc45)n3)C2)CC1C (stereo not shown) [Compound 232]	< 500	
< 500		< 100		C=CC(=O)N1CCN(CC2(O)CCC[C@@H](Nc3ncc(Cl)c(-c4c[nH]c5ccccc45)n3)C2)CC1 (single isomer, unassigned) [Compound 188]	< 500	
< 500	< 100	< 100		4-trans-acrylamido-N-((1S,3R)-3-(5-chloro-4-(1H-indol-3-yl)pyrimidin-2-ylamino)cyclohexyl)cyclohexanecarboxamide [Compound 117]	< 500	
	< 100	< 100	< 500	C=CC(=O)N1CCC[C@@H](C(=O)N[C@H]2CCC[C@@H](Nc3ncc(Cl)c(-c4c[nH]c5ccccc45)n3)C2)C1 [Compound 174, (R)-1-acryloyl-N-((1S,3R)-3-(5-chloro-4-(1H-indol-3-yl)pyrimidin-2-ylamino)cyclohexyl)piperidine-3-carboxamide]		< 500
500 to 5000	< 100	< 100		C=CC(=O)N1CCN(C2CCCC(Nc3ncc(Cl)c(-c4c[nH]c5ccccc45)n3)C2)CC1C (stereo not shown) [Compound 229]	< 500	
	< 100	< 100	< 500	C=CC(=O)N1CCC(C(=O)N[C@H]2CCC[C@@H](Nc3ncc(Cl)c(-c4c[nH]c5ccccc45)n3)C2)CC1 [Compound 118, 1-acryloyl-N-((1S,3R)-3-(5-chloro-4-(1H-indol-3-yl)pyrimidin-2-ylamino)cyclohexyl)piperidine-4-carboxamide]		< 500
	< 100	< 100	< 500	C=CC(=O)N1CCC[C@H]1C(=O)N[C@H]1CCC[C@@H](Nc2ncc(Cl)c(-c3c[nH]c4ccccc34)n2)C1 [Compound 115, (S)-1-acryloyl-N-((1S,3R)-3-(5-chloro-4-(1H-indol-3-yl)pyrimidin-2-ylamino)cyclohexyl)pyrrolidine-2-carboxamide]		< 500
